{"source": "patent US11141406B2", "about": "“Pharmaceutical compounds” (REVIRAL LIMITED, priority 2017, dated 2021)", "key": {"[1]": {"test_system": "RSV fusion (HEK293T cells transfected with pCDNA3.1_A2_F)", "experiment": "RSV fusion assay", "assay_type": "cell-based", "conditions": "human respiratory syncytial virus, HEK-293T, read-out: RSV Fusion Assay (n ≥ 2) IC50", "protocol": "HEK293T ((ECACC 12022001) cells were cultured in T75 culture flasks in Dulbecco's medium (DMEM) containing 10% Foetal Bovine serum (FBS), 50 units per mL Penicillin and 50 μg/mL Streptomycin and warmed to 37° C. prior to use. The cells were passaged by first washing briefly with 5 mL Phosphate buffered saline (PBS), followed by addition of 2 mL of Trypsin Ethylenediaminetetraacetic acid (EDTA) to detach the cells. Once cells had detached from the flask, 8 mL media was then added to and the cells dispersed via pipetting against the bottom of the flask.\nThe cells were counted and diluted to 3×10^5 cells/mL in fresh media. Two T75 flasks were each seeded with 15.6 mL diluted cells, cells were also subcultured at a ratio of between 1:2 and 1:10, to continue the stock. The flasks were then incubated for 24 h at 37° C. and 5% CO2.\nThe plasmid DNA (for pFR-Luc and pcDNA3.1_Gal4/NFKB) to be transfected into the HEK 293T cells was first prepared in serum free media (Opti-MEM, Invitrogen), containing the transfection reagent FuGENE® 6 (Promega). Serum free media was placed in a 1.5 mL eppendorf tube then the FuGENE 6 was added into the media. The tube was vortexed for 1 s before being incubated at RT for 5 min. 7.79 ng of both pFR_luc and pCDNA3.1_A2_F plasmid DNA were added to tube 1 and 7.79 ng of pCDNA3.1_GAL4-NF-κB plasmid to tube 2. The tubes were vortexed for 1 second and then incubated at room temperature for 15 min. Each transfection mixture was then added into the media of one of the T75 flasks of 293T cells. Cells were cultured for 24 h at 37° C., 5% CO2 in a humidified incubator.\nCompounds were diluted (in a polypropylene round-bottomed 96 well plate) 1:3 in a twelve point dilution curve to give top [final] of either 25 μM, 3 μM, 1 μM or 500 nM. A control compound was included in every assay at a top concentration of 3 μM. Transfected cells were counted and diluted to 4×10^5 cells/mL in fresh media. 50 μL of transfection population 1 were added to all wells of the 96 well flat bottom white opaque assay plates. 100 μL diluted compound (2 rows per compound), control compound (one row) and controls (DMSO (0% inhibition, four wells), 3 μM positive control (100% inhibition, four wells) and media (transfection population 1 only, four wells) were added to the appropriate wells. 50 μL of the diluted (4×10^5 cells/mL) population 2 cells when then added to all wells, except the four wells of transfection population 1 only where an extra 50 μL of this cells population was added.\nThe plates were then incubated for 24 h at 37° C. and 5% CO2. After this time, 100 μL was removed from all wells and 60 μL of ONE-Glo™ (Promega) reagent, pre-equilibrated to room temperature, was added. Plates were then incubated for 3 min at room temperature before luminescence was read, using the ONE-Glo protocol, on the GloMax Explorer System (Promega) multimode reader. Analysis was carried out in Dotmatics software. All raw data were background subtracted (subtraction of mean 3 μM positive control value), before IC50 calculation."}, "[2]": {"experiment": "Liver microsomal stability, rat", "assay_type": "in vitro ADME", "conditions": "pooled liver microsomes, pH 7.4, 3 μM compound, 0.5 mg/mL protein, read-out: Liver Microsomal Stability t1/2", "protocol": "(§1) Microsomal incubation: Experimental Procedure Pooled liver microsomes are purchased from a reputable commercial supplier and stored at −80° C. prior to use. Microsomes (final protein concentration 0.5 mg/mL), 0.1 M phosphate buffer pH 7.4 and test compound (final substrate concentration 3 μM, final DMSO concentration 0.25%) are pre-incubated at 37° C. prior to the addition of NADPH (final concentration 1 mM) to initiate the reaction. The final incubation volume is […]. A control incubation is included for each compound tested where 0.1 M phosphate buffer pH 7.4 is added instead of NADPH (minus NADPH). Two control compounds are included with each species. All incubations are performed singularly for each test compound. Each compound is incubated for 0, 5, 15, 30 and 45 min. The control (minus NADPH) is incubated for 45 min only. The reactions are stopped by transferring 20 μL of incubate to 60 μL MeOH at the appropriate time points. The termination plates are centrifuged at 2,500 rpm for 20 min at 4° C. to precipitate the protein. Following protein precipitation, the sample supernatants are combined in cassettes of up to 4 compounds, internal standard is added and samples analysed by LC-MS/MS. From a plot of In peak area ratio (compound peak area/internal standard peak area) against time, the gradient of the line is determined. Subsequently, half-life and intrinsic clearance are calculated."}, "[3]": {"experiment": "Liver microsomal stability, dog", "assay_type": "in vitro ADME", "conditions": "pooled liver microsomes, pH 7.4, 3 μM compound, 0.5 mg/mL protein, read-out: Liver Microsomal Stability t1/2", "protocol": "as §1"}, "[4]": {"experiment": "Liver microsomal stability, human", "assay_type": "in vitro ADME", "conditions": "pooled liver microsomes, pH 7.4, 3 μM compound, 0.5 mg/mL protein, read-out: Liver Microsomal Stability t1/2", "protocol": "as §1"}, "MDR1": {"test_system": "MDR1", "experiment": "in vitro", "assay_type": "in vitro ADME", "conditions": "dog, MDCK-MDR1", "protocol": "MDR1-MDCK Permeability: Experimental Procedure\nMDR1-MDCK cells obtained from the NIH (Rockville, Md., USA) are used between passage numbers 6-30. Cells are seeded onto Millipore Multiscreen Transwell plates at 3.4×10^5 cells/cm^2. The cells are cultured in DMEM and media is changed on day 3. On day 4 the permeability study is performed. Cell culture and assay incubations are carried out at 37° C. in an atmosphere of 5% CO2 with a relative humidity of 95%. On the day of the assay, the monolayers are prepared by rinsing both basolateral and apical surfaces twice with Hanks Balanced Salt Solution (HBSS) at the desired pH warmed to 37° C. Cells are then incubated with HBSS at the desired pH in both apical and basolateral compartments for 40 min to stabilise physiological parameters.\nThe dosing solutions are prepared by diluting test compound with assay buffer to give a final test compound concentration of 10 μM (final DMSO concentration of 1% v/v). The fluorescent integrity marker lucifer yellow is also included in the dosing solution. Analytical standards are prepared from test compound DMSO dilutions and transferred to buffer, maintaining a 1% v DMSO concentration.\nFor assessment of A-B permeability, HBSS is removed from the apical compartment and replaced with test compound dosing solution. The apical compartment insert is then placed into a companion plate containing fresh buffer (containing 1% v/v DMSO). For assessment of B-A permeability, FIBSS is removed from the companion plate and replaced with test compound dosing solution. Fresh buffer (containing 1% v/v DMSO) is added to the apical compartment insert, which is then placed into the companion plate. At 60 min the apical compartment inserts and the companion plates are separated and apical and basolateral samples diluted for analysis. Test compound permeability is assessed in duplicate. Compounds of known permeability characteristics are run as controls on each assay plate.\nTest and control compounds are quantified by LC-MS/MS cassette analysis using an 8-point calibration with appropriate dilution of the samples. The starting concentration (C0) is determined from the dosing solution and the experimental recovery calculated from C0 and both apical and basolateral compartment concentrations. The integrity of the monolayer throughout the experiment is checked by monitoring lucifer yellow permeation using fluorimetric analysis. Lucifer yellow permeation is high if monolayers have been damaged."}}, "note": "pIC50: −log10 of the molar value.", "data": [{"smiles": "CC(C)CCn1c(CN2C(=O)C(F)(F)c3ccccc32)nc2cc(CN)ccc21", "note": "[Compound 13, 1-{[5-(Aminomethyl)-1-(3-methylbutyl)-1H-1,3-benzodiazol-2-yl]methyl}-3,3-difluoro-2,3-dihydro-1H-indol-2-one]", "values": [{"measurement": "pIC50", "setting": "[1]", "result": 8.59}, {"measurement": "half-life at 3 μM", "setting": "[2]", "result": 0.282, "unit": "h"}, {"measurement": "half-life at 3 μM", "setting": "[3]", "result": 154, "unit": "h"}, {"measurement": "half-life at 3 μM", "setting": "[4]", "result": 6.1, "unit": "h"}, {"measurement": "Papp A→B at 60 min, 10 μM", "setting": "MDR1", "result": 0.84, "unit": "×10⁻⁶ cm/s"}, {"measurement": "Papp B→A at 60 min, 10 μM", "setting": "MDR1", "result": 57.1, "unit": "×10⁻⁶ cm/s"}]}, {"smiles": "O=C1N(Cc2nc3cc(Cl)ccc3n2C2CCOCC2)c2ccccc2C1(F)F", "note": "[Compound 10, 1-{[5-Chloro-1-(oxan-4-yl)-1H-1,3-benzodiazol-2-yl]methyl}-3,3-difluoro-2,3-dihydro-1H-indol-2-one]", "values": [{"measurement": "pIC50", "setting": "[1]", "result": 7.77}, {"measurement": "half-life at 3 μM", "setting": "[2]", "result": 0.303, "unit": "h"}, {"measurement": "half-life at 3 μM", "setting": "[3]", "result": 0.207, "unit": "h"}, {"measurement": "half-life at 3 μM", "setting": "[4]", "result": 1.12, "unit": "h"}, {"measurement": "Papp A→B at 60 min, 10 μM", "setting": "MDR1", "result": 19.8, "unit": "×10⁻⁶ cm/s"}, {"measurement": "Papp B→A at 60 min, 10 μM", "setting": "MDR1", "result": 34.4, "unit": "×10⁻⁶ cm/s"}]}, {"smiles": "CS(=O)(=O)CCCn1c(CN2C(=O)C(F)(F)c3ccccc32)nc2cc(Cl)ccc21", "note": "[Compound 5, 1-{[5-Chloro-1-(3-methanesulfonylpropyl)-1H-1,3-benzodiazol-2-yl]methyl}-3,3-difluoro-2,3-dihydro-1H-indol-2-one]", "values": [{"measurement": "pIC50", "setting": "[1]", "result": 8.41}, {"measurement": "half-life at 3 μM", "setting": "[2]", "result": 0.355, "unit": "h"}, {"measurement": "half-life at 3 μM", "setting": "[3]", "result": 1.05, "unit": "h"}, {"measurement": "half-life at 3 μM", "setting": "[4]", "result": 54.7, "unit": "h"}, {"measurement": "Papp A→B at 60 min, 10 μM", "setting": "MDR1", "result": 0.21, "unit": "×10⁻⁶ cm/s"}, {"measurement": "Papp B→A at 60 min, 10 μM", "setting": "MDR1", "result": 14.5, "unit": "×10⁻⁶ cm/s"}]}, {"smiles": "CCS(=O)(=O)N1CCC(n2c(CN3C(=O)C(F)(F)c4ccccc43)nc3cc(Cl)ccc32)CC1", "note": "[Compound 9, 1-({5-Chloro-1-[1-(ethanesulfonyl)piperidin-4-yl]-1H-1,3-benzodiazol-2-yl}methyl)-3,3-difluoro-2,3-dihydro-1H-indol-2-one]", "values": [{"measurement": "pIC50", "setting": "[1]", "result": 8.66}, {"measurement": "half-life at 3 μM", "setting": "[2]", "result": 0.377, "unit": "h"}, {"measurement": "half-life at 3 μM", "setting": "[3]", "result": 1.97, "unit": "h"}, {"measurement": "half-life at 3 μM", "setting": "[4]", "result": 1.5, "unit": "h"}, {"measurement": "Papp A→B at 60 min, 10 μM", "setting": "MDR1", "result": 10.4, "unit": "×10⁻⁶ cm/s"}, {"measurement": "Papp B→A at 60 min, 10 μM", "setting": "MDR1", "result": 18.3, "unit": "×10⁻⁶ cm/s"}]}]}
